Patent US12102617B2, “Antimicrobial compositions containing a synergistic combination of activated creatinine and an imidazole antifungal agent” (Board of Regents of the University of Nebraska, priority 2016, dated 2024)
Converted amounts (≈) assume the structure as drawn. Where a name gives a salt, the structure may show the parent alone. Read-outs that look alike come from different tables or passages of the source.

Columns and labels:
Penicillium spp. 2 = test: Comparative antifungal testing on LB agar plate wells, mold fungi (Example 4); assay type: cell-based; conditions: 0.1% (w/v) solutions in wells of LB agar plate, after 48 hours
Protocol: (§1) Two species of penicillium, Penicillium spp. 1 and Penicillium spp. 2, were isolated from contaminates that grew on laboratory plates and were grown in LB broth, shaking for three days. One hundred microliters of the fungal broth were added to an LB agar plate and evenly spread on the surface. Test samples containing the following aqueous solutions were prepared: • 0.1% (w/v) clotrimazole (3.4 mM); • 0.1% (w/v) clotrimazole in 200 mM creatinine ethyl ester hydrochloride (“CEE”) (3.4 mM in clotrimazole; 1.7 mol % clotrimazole in the clotrimazole-creatinine mixture); • 0.1% (w/v) ketoconazole (5.3 mM); • 0.1% (w/v) fluconazole (30 mM). […] (2009) Biochem. Biophys. Res. Comm. 388(2):252-255.

Penicillium spp. 1 = test: as above; assay type: cell-based; conditions: 0.1% (w/v) solutions in wells of LB agar plate, after 48 hours
Protocol: as §1

[1] = test system: Staphylococcus aureus (Gram positive; laboratory strain 29213); test: MIC determination, two-fold dilutions in 96-well plates (Example 2); assay type: cell-based; conditions: for antibacterial efficacy against S. aureas (Example 2, FIG. 2): comparative photographs; for MIC: S. aureus, single agent alone, 24 hours at 37° C.
Protocol: (§2) The antibacterial activity of the clotrimazole/activated creatinine solutions prepared as described in Example 1 was evaluated with respect to Staphylococcus aureus (Gram positive; laboratory strain 29213), E. coli (Gram negative; laboratory strain 35150), and a multiple drug resistant strain of Enterococcus faecalis (Gram positive). The S. aureus and E. coli were purchased from the American Type Culture Collection, and the E. faecalis was a local veterinary clinic isolate. The minimum inhibitory concentration (“MIC”) for each solution was determined against each of the three bacteria after incubation for 24 hours at 37° C. using two-fold dilutions and flat-bottom 96-well plates.

[2] = test system: multiple drug resistant strain of Enterococcus faecalis (Gram positive); test: as above; assay type: cell-based; conditions: E. faecalis (multiple drug resistant), single agent alone, 24 hours at 37° C.
Protocol: as §2

[3] = test system: E. coli (Gram negative; laboratory strain 35150); test: microbe, parasite or virus in culture; assay type: cell-based; conditions: single agent alone, 24 hours at 37° C.
Protocol: as §2

[4] = test system: Candida albicans yeast (ATCC1023); test: Antifungal MIC evaluation (Example 3); assay type: cell-based; conditions: C. albicans yeast, single agent alone, 24 hours at 37° C.
Protocol: (§3) The MIC for each solution was determined against the fungi after incubation for 24 hours at 37° C. using two-fold dilutions and flat-bottom 96-well plates.

[5] = test system: Saccharomyces spp. yeast (baker's yeast); test: Antifungal MIC evaluation (Example 3); assay type: cell-based; conditions: single agent alone, 24 hours at 37° C.
Protocol: as §3

[6] = test system: gram negative and gram positive bacteria; conditions: both gram negative and gram positive bacteria, including antibiotic resistant organisms; cited from earlier work

CC(=O)N1CCN(c2ccc(OCC3COC(Cn4ccnc4)(c4ccc(Cl)cc4Cl)O3)cc2)CC1 (stereo not drawn) [ketoconazole]
inhibition of fungal growth (Penicillium spp. 2): do not | inhibition of fungal growth (Penicillium spp. 1): do not

Clc1ccccc1C(c1ccccc1)(c1ccccc1)n1ccnc1 [Clotrimazole, clotrimazole]
antibacterial efficacy against S. aureas (Example 2, FIG. 2) [1]: ineffective | MIC [1]: no impact on bacterial growth | MIC [2]: no impact on bacterial growth | MIC [3]: no impact on bacterial growth | inhibition of fungal growth (Penicillium spp. 2): does not exhibit antifungal activity | inhibition of fungal growth (Penicillium spp. 2; listed as CLO): do not | inhibition of fungal growth (Penicillium spp. 1): does not exhibit antifungal activity | inhibition of fungal growth (Penicillium spp. 1; listed as CLO): do not | MIC ([4]; Candida albicans, ATCC1023, read-out: MIC): 6 mg/mL (≈ 17.4 mM) | MIC ([5]; read-out: MIC): 7.5 mg/mL (≈ 21.7 mM)

CN1CC(=O)N=C1N [activated creatinine, creatinine hydrochloride]
antibacterial efficacy against S. aureas (Example 2, FIG. 2) [1]: ineffective | MIC ([1]; Staphylococcus aureus, read-out: MIC): 10.9 mg/mL | MIC ([2]; Enterococcus faecalis, read-out: MIC): 21.8 mg/mL | MIC ([3]; Escherichia coli, read-out: MIC): 21.9 mg/mL | inhibitory activity against bacteria [6]: broad spectrum inhibitory activity | MIC [4]: no impact on fungal growth | MIC [5]: no impact on fungal growth

OC(Cn1cncn1)(Cn1cncn1)c1ccc(F)cc1F [fluconazole]
inhibition of fungal growth (Penicillium spp. 2): do not | inhibition of fungal growth (Penicillium spp. 1): do not
